From US4009166A, “Pyrido(2,3-d) pyrimidinones” (Hisamitsu Pharmaceutical Co., Inc., priority 1974, dated 1977)
Structures can show the parent of a compound that is named as a salt. Where two headings read alike, the source gives them in different places.

Tests used:
[1] = test system: writhing syndrome in dd-strain male mice; assay: Analgetic effect (acetic acid writhing syndrome); assay type: in vivo; conditions: Mus musculus, po, orally, 0.6% acetic acid writhing, Litchfield-Wilcoxon, read-out: analgetic effect ED50 (95 % C.L.)
Experimental: 3. Analgetic effect Each test compound suspended in 0.5% tragacanth-saline solution was orally administered to dd-strain male mice (18-20 g). After one hour 0.6% acetic acid solution was intraperitoneally injected in a volume of 0.1 ml/10 g.

[2] = test system: carrageenin edema in Wistar-strain male rats; assay: Anti-inflammatory effect (carrageenin edema of the hind paw); assay type: in vivo; conditions: for inhibition in vivo at 10 mg/kg / inhibition in vivo at 50 mg/kg: Rattus norvegicus, po; for inhibition in vivo at 10 mg/kg: read-out: anti-inflammatory effect dose(mg/kg) 10 (inhibition percentage of carrageenin edema); for inhibition in vivo at 50 mg/kg: read-out: anti-inflammatory effect dose(mg/kg) 50 (inhibition percentage of carrageenin edema)
Experimental: 2. Anti-inflammatory effect
A group of five Wistar-strain male rats (100-150 g) were orally administered with each test compound suspended in 0.5% tragacanth-saline solution. After 30 minutes 0.5-1.0% carrageenin suspended in the water for injection was injected subcutaneously to a hind paw. After 3 hours the carrageenin edema was measured by volume and the inhibition percentage was determined with respect to the results for the control animals. The inhibition percentages were shown with the notations as follows: […]

[3] = test system: righting reflex of dd-strain male mice; assay: Central nervous system depressive effect (disappearance of righting reflex); assay type: in vivo; conditions: Mus musculus, ip, read-out: C N S depressive effect (dose required for the disappearance of righting reflex)
Experimental: 4. Central nervous system depressive effect
Each test compound suspended in 0.5% tragacanth-saline solution was injected intraperitoneally to dd-strain male mice (16-24 g). The disappearance of righting reflex was observed under noiseless circumstances. The dose required for the disappearance of righting reflex is indicated with the following notations: […]

dd-strain male mice = conditions: deaths 72 hours after administration
Experimental: The lethal dose was estimated from the death of animals 72 hours after administration.

[4] = test system: writhing syndrome in dd-strain male mice; assay: Analgetic effect (acetic acid writhing syndrome); assay type: in vivo; conditions: Mus musculus, ip, read-out: analgetic effect ED50 (95 % C.L.), i.p.
[5] = 10 mg/kg orally, rats, edema volume 3 hours after carrageenin
[6] = 50 mg/kg orally, rats, edema volume 3 hours after carrageenin

Compound | ED50 [1] [mg/kg] | inhibition in vivo at 10 mg/kg [2, 5] [%] | inhibition in vivo at 50 mg/kg [2, 6] [%] | minimal effective dose ([3]; intraperitoneally, mice) [mg/kg] | acute toxicity i.p. (lethal dose) (dd-strain male mice) | acute toxicity p.o. (lethal dose) (dd-strain male mice) [mg/kg] | ED50 [4] [mg/kg] | anti-inflammatory effect dose(mg/kg) 10 (inhibition percentage of carrageenin edema) [2, 5] | inhibition in vivo at 10 mg/kg ([2]; 3 h) [%] | inhibition in vivo at 50 mg/kg ([2]; 3 h) [%] | minimal effective dose [3] [mg/kg]
C=CCN1Cc2cccnc2N(c2cccc(Cl)c2)C1=O [drawing 132/CH2 CHCH2] | 1.2 | 46 to 60 | 46 to 60 | 3 to 10 | – | – | – | – | – | – | –
CN1CN(c2cccc([N+](=O)[O-])c2)c2ncccc2C1=O [drawing 123/CH3, 1-(m-nitrophenyl)-3-methyl-4-oxo-1,2,3,4-tetrahydropyrido[2,3-d]pyrimidine] | 22 | < 15 | 16 to 30 | > 1000 | > 1000 mg/kg | – | – | – | – | – | –
COCN1CN(c2cccc(Cl)c2)c2ncccc2C1=O [drawing 119/CH2 OCH3] | > 100 | 16 to 30 | 16 to 30 | – | – | – | – | – | – | – | –
CCN1CN(c2cccc(C(F)(F)F)c2)c2ncccc2C1=O [drawing 122/C2 H5] | > 100 | 16 to 30 | > 61 | 30 to 100 | > 1000 mg/kg | – | – | – | – | – | –
CC(C)N1Cc2cccnc2N(c2cccc(F)c2)C1=O | 4.5 | 31 to 45 | > 61 | 3 to 10 | – | – | – | – | – | – | –
CN1Cc2cccnc2N(c2cccc(Cl)c2)C1=O [drawing 132/CH3, 1-(m-chlorophenyl)-3-methyl-2-oxo-1,2,3,4-tetrahydropyrido[2,3-d]pyrimidine] | 13 | 46 to 60 | > 61 | < 3 | – | – | – | – | – | – | –
CCN1Cc2cccnc2N(c2cccc(C(F)(F)F)c2)C1=O [drawing 135/C2 H5, 1-(m-trifluoromethylphenyl)-3-ethyl-2-oxo-1,2,3,4-tetrahydropyrido[2,3-d]pyrimidine] | 6.3 | 31 to 45 | 46 to 60 | 3 to 10 | – | – | – | – | – | – | –
O=C1N(CCF)Cc2cccnc2N1c1ccc(Cl)c(Cl)c1 [drawing 137/CH2 CH2 F] | 1 | > 61 | – | 3 to 10 | – | – | – | – | – | – | –
COCN1Cc2cccnc2N(c2cccc(C(F)(F)F)c2)C1=O [drawing 135/CH2 OCH3] | 8.1 | – | 31 to 45 | 10 to 30 | – | – | – | – | – | – | –
CCN1Cc2cccnc2N(c2ccc(F)cc2)C1=O [drawing 129/C2 H5] | 4.9 | 46 to 60 | 46 to 60 | 10 to 30 | – | – | – | – | – | – | –
CC(C)N1Cc2cccnc2N(c2cccc(C(F)(F)F)c2)C1=O | 6.7 | < 15 | 46 to 60 | 10 to 30 | > 1000 mg/kg | 2000 | – | – | – | – | –
CN1Cc2cccnc2N(c2cccc(C(F)(F)F)c2)C1=O [drawing 135/CH3, 1-(m-trifluoromethylphenyl)-3-methyl-2-oxo-1,2,3,4-tetrahydropyrido[2,3-d]pyrimidine] | 6.6 | 16 to 30 | 46 to 60 | 3 to 10 | – | < 500 | – | – | – | – | –
CCN1CN(c2cccc([N+](=O)[O-])c2)c2ncccc2C1=O [drawing 123/C2 H5] | 1.95 | 31 to 45 | > 61 | 30 to 100 | 1000 mg/kg | 2000 | – | – | – | – | –
CC(C)N1CN(c2cccc(Cl)c2)c2ncccc2C1=O | > 100 | 16 to 30 | 31 to 45 | – | – | – | – | – | – | – | –
O=C(O)CN1Cc2cccnc2N(c2cccc(C(F)(F)F)c2)C1=O [drawing 135/CH2 COOH] | > 100 | – | – | > 1000 | > 1000 mg/kg | > 2000 | – | – | – | – | –
CCCCC1C(=O)N(c2ccccc2)N(c2ccccc2)C1=O [phenylbutazone, reference compound] | 290 | < 15 | 31 to 45 | 300 to 1000 | – | – | – | – | – | – | –
Cc1c(N(C)C)c(=O)n(-c2ccccc2)n1C [aminopyrine, reference compound] | – | < 15 | < 15 | – | 100 to 300 mg/kg | – | 56 | – | – | – | –
CCN1Cc2cccnc2N(c2ccccc2)C1=O [drawing 126/C2 H5] | 2.1 | 46 to 60 | 46 to 60 | 3 to 10 | 300 mg/kg | – | – | – | – | – | –

Compound | ED50 [1] [mg/kg] | inhibition in vivo at 10 mg/kg [2, 5] [%] | inhibition in vivo at 50 mg/kg [2, 6] [%] | minimal effective dose ([3]; intraperitoneally, mice) [mg/kg] | acute toxicity i.p. (lethal dose) (dd-strain male mice) | acute toxicity p.o. (lethal dose) (dd-strain male mice) [mg/kg] | ED50 [4] [mg/kg] | anti-inflammatory effect dose(mg/kg) 10 (inhibition percentage of carrageenin edema) [2, 5] | inhibition in vivo at 10 mg/kg ([2]; 3 h) [%] | inhibition in vivo at 50 mg/kg ([2]; 3 h) [%] | minimal effective dose [3] [mg/kg]
CN1CN(c2cccc(Br)c2)c2ncccc2C1=O [drawing 121/CH3] | > 100 | – | < 15 | 30 to 100 | > 1000 mg/kg | – | – | – | – | – | –
CCN1Cc2cccnc2N(c2ccc(Cl)cc2)C1=O [drawing 133/C2 H5] | 49 | – | 46 to 60 | < 3 | – | – | – | + ++ | – | – | –
CN1Cc2cccnc2N(c2ccccc2Cl)C1=O [drawing 130/CH3] | 44 | – | 16 to 30 | 30 to 100 | – | – | – | – | – | – | –
COCN1Cc2cccnc2N(c2cccc(Cl)c2)C1=O [drawing 132/CH2 OCH3] | 1.6 | 46 to 60 | > 61 | 3 to 10 | – | – | – | – | – | – | –
CCN1Cc2cccnc2N(c2ccc(Cl)c(Cl)c2)C1=O [drawing 137/C2 H5] | 1.3 | 46 to 60 | 46 to 60 | < 3 | – | – | – | – | – | – | –
CC(C)N1Cc2cccnc2N(c2ccc(Cl)c(Cl)c2)C1=O | 16.3 | 46 to 60 | > 61 | 3 to 10 | 1000 mg/kg | 2000 | – | – | – | – | –
CN1C(=O)CN=C(c2ccccc2)c2cc(Cl)ccc21 [diazepam, reference compound] | – | – | – | – | – | – | – | – | < 15 | 16 to 30 | 30 to 100
CN1CN(c2cccc(C(F)(F)F)c2)c2ncccc2C1=O [drawing 122/CH3] | – | 16 to 30 | < 15 | – | – | – | – | – | – | – | –
CCCN1Cc2cccnc2N(c2cccc(Br)c2)C1=O [drawing 134/CH2 CH2 CH3] | 2.65 | 46 to 60 | 46 to 60 | 3 to 10 | – | < 2000 | – | – | – | – | –
CCN1CN(c2cccc(Br)c2)c2ncccc2C1=O [drawing 121/C2 H5] | > 100 | – | 31 to 45 | 30 to 100 | > 1000 mg/kg | – | – | – | – | – | –
CCN1Cc2cccnc2N(c2cccc(F)c2)C1=O [drawing 127/C2 H5] | 4.4 | > 61 | > 61 | < 3 | – | – | – | – | – | – | –
Cc1ccccc1-n1c(C)nc2ccccc2c1=O [methaqualone, reference compound] | – | – | – | – | – | – | – | – | – | – | 10 to 30
O=C(O)c1ccccc1Nc1cccc(C(F)(F)F)c1 [flufenamic acid, reference compound] | 180 | < 15 | 16 to 30 | > 1000 | 300 to 1000 mg/kg | – | – | – | – | – | –
CN1Cc2cccnc2N(c2ccccc2)C1=O [drawing 126/CH3] | 13 | 31 to 45 | 46 to 60 | 3 to 10 | – | – | – | – | – | – | –
O=C1N(CCO)Cc2cccnc2N1c1cccc(C(F)(F)F)c1 [drawing 135/CH2 CH2 OH] | 55 | – | 16 to 30 | > 1000 | > 1000 mg/kg | > 2000 | – | – | – | – | –
COCN1CN(c2cccc([N+](=O)[O-])c2)c2ncccc2C1=O [drawing 123/CH2 OCH3 . HCl] | 2.7 | 46 to 60 | 46 to 60 | – | – | < 2000 | – | – | – | – | –
CC(C)N1CN(c2cccc([N+](=O)[O-])c2)c2ncccc2C1=O | 4.7 | 46 to 60 | 46 to 60 | 100 to 300 | > 1000 mg/kg | < 2000 | – | – | – | – | –
CCN1Cc2cccnc2N(c2cccc(Br)c2)C1=O [drawing 134/C2 H5] | 2.85 | 46 to 60 | 46 to 60 | < 3 | 100 300 mg/kg | – | – | – | – | – | –
